Source: PubChem BioAssay (NCI)
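48-hour exposure; five concentrations; linearly interpolated endpoints. Here, GI50 denotes the concentration required for 50% inhibition of growth. TGI is the concentration that stops growth completely.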

How the values were obtained:
Test in all cases: NCI-60 cell line screen, 48 h
[1] = test system: A549 NSCLC
[2] = test system: UO-31 renal
[3] = test system: OVCAR-3 ovarian
[4] = test system: MOLT-4 leukemia
[5] = test system: PC-3 prostate
[6] = test system: M14 melanoma
[7] = test system: U251 CNS
[8] = test system: SK-MEL-28 melanoma
[9] = test system: OVCAR-4 ovarian
[10] = test system: HCT-15 colon

Question: How did the GI50 [1] turn out when `CC1(C)[C@@H](OC(N)=O)C=C[C@]2(CO)[C@H]3CC[C@]4(C)[C@@H](c5ccc(=O)oc5)[C@@H](Cl)C[C@]4(O)C3=CC[C@@H]12` was run?
Answer: < 0.0001 µM

Question: What about the TGI [1] of the same molecule?
Answer: 0.00192 µM

Question: What about the GI50 [2] of the same molecule?
Answer: 0.00351 µM

Question: And the TGI [2]?
Answer: 0.0134 µM

Question: And the GI50 [3]?
Answer: < 0.0001 µM

Question: And the TGI [3]?
Answer: 0.00411 µM

Question: What about the GI50 [4] of the same molecule?
Answer: < 0.0001 µM

Question: And the GI50 [5]?
Answer: 0.00189 µM

Question: And the TGI [5]?
Answer: 0.0137 µM

Question: What about the GI50 [6] of the same molecule?
Answer: 0.0131 µM

Question: And the TGI [6]?
Answer: 0.0297 µM

Question: What about the GI50 [7] of the same molecule?
Answer: 0.0043 µM

Question: What about the TGI [7] of the same molecule?
Answer: 0.0158 µM

Question: And the GI50 [8]?
Answer: 0.0116 µM

Question: And the TGI [8]?
Answer: 0.0303 µM

Question: And the GI50 [9]?
Answer: < 0.0001 µM

Question: And the TGI [9]?
Answer: 0.00372 µM

Question: What about the GI50 [10] of the same molecule?
Answer: 0.00481 µM

Question: What about the TGI [10] of the same molecule?
Answer: 0.0258 µM

Question: With `CNC(=O)N(CCC#N)CCCN(C(=O)N(C)C)c1ccccc1` as the molecule, how does the TGI [1] read?
Answer: > 100 µM

Question: And the TGI [2]?
Answer: > 100 µM

Question: What about the TGI [3] of the same molecule?
Answer: > 100 µM

Question: What about the TGI [4] of the same molecule?
Answer: > 100 µM

Question: What about the TGI [5] of the same molecule?
Answer: > 100 µM

Question: And the TGI [6]?
Answer: > 100 µM

Question: What about the TGI [7] of the same molecule?
Answer: > 100 µM

Question: And the TGI [8]?
Answer: > 100 µM

Question: What about the TGI [9] of the same molecule?
Answer: > 100 µM

Question: And the TGI [10]?
Answer: > 100 µM

Question: Which TGI [1] does the source give for `COc1ccc2c(c1)C(=O)C1CCC(=O)N1C2c1ccc2c(c1)OCO2` (centres undefined) here?
Answer: 51.5 µM

Question: What about the TGI [2] of the same molecule?
Answer: 22.4 µM

Question: And the TGI [3]?
Answer: 15.3 µM

Question: And the TGI [4]?
Answer: 11.2 µM

Question: And the TGI [5]?
Answer: 29.5 µM

Question: What about the TGI [6] of the same molecule?
Answer: 29 µM

Question: What about the TGI [7] of the same molecule?
Answer: 31.5 µM

Question: What about the TGI [8] of the same molecule?
Answer: 24.4 µM

Question: What about the TGI [9] of the same molecule?
Answer: 47.9 µM

Question: What about the TGI [10] of the same molecule?
Answer: 29.6 µM

Question: For `COc1cc2oc(=O)cc(C)c2c(OC)c1OC(C)=O`, which TGI [1] is on record?
Answer: > 100 µM

Question: What about the TGI [2] of the same molecule?
Answer: > 100 µM

Question: And the TGI [3]?
Answer: > 100 µM

Question: What about the TGI [4] of the same molecule?
Answer: > 100 µM

Question: And the TGI [5]?
Answer: > 100 µM

Question: What about the TGI [6] of the same molecule?
Answer: > 100 µM

Question: And the TGI [7]?
Answer: > 100 µM

Question: What about the TGI [8] of the same molecule?
Answer: > 100 µM

Question: What about the TGI [9] of the same molecule?
Answer: > 100 µM

Question: And the TGI [10]?
Answer: > 100 µM

Question: How did the TGI [1] turn out when `COC(=O)c1cc(C)ccc1/C=C1\Cc2c(C)cc(C)cc2C1=O` was run?
Answer: > 100 µM

Question: What about the TGI [2] of the same molecule?
Answer: > 85.8 µM

Question: And the TGI [3]?
Answer: > 100 µM

Question: What about the TGI [4] of the same molecule?
Answer: > 100 µM

Question: What about the TGI [5] of the same molecule?
Answer: > 100 µM

Question: And the TGI [6]?
Answer: > 100 µM

Question: And the TGI [7]?
Answer: 42.9 µM

Question: And the TGI [8]?
Answer: > 100 µM

Question: What about the TGI [9] of the same molecule?
Answer: > 100 µM

Question: And the TGI [10]?
Answer: > 100 µM

Question: For `COc1cc2oc(=O)cc(C)c2cc1OC`, which TGI [1] is on record?
Answer: > 100 µM

Question: What about the TGI [2] of the same molecule?
Answer: > 100 µM

Question: And the TGI [3]?
Answer: > 100 µM

Question: And the TGI [4]?
Answer: > 100 µM

Question: What about the TGI [5] of the same molecule?
Answer: > 100 µM

Question: What about the TGI [6] of the same molecule?
Answer: > 100 µM

Question: And the TGI [7]?
Answer: > 100 µM

Question: And the TGI [8]?
Answer: > 100 µM

Question: What about the TGI [9] of the same molecule?
Answer: > 100 µM

Question: What about the TGI [10] of the same molecule?
Answer: > 100 µM

Question: What does the source list for `O=C(O)COc1cc(-c2ccccc2)nc2ccccc12`?
Answer: TGI [1]: > 100 µM; TGI [2]: > 100 µM; TGI [3]: > 100 µM; TGI [4]: > 100 µM; TGI [5]: > 100 µM; TGI [6]: > 100 µM; TGI [7]: > 100 µM; TGI [8]: > 100 µM; TGI [9]: > 100 µM; TGI [10]: > 100 µM

Question: Which results are given for `CC(C)(C)C(=O)N1CCN(C=O)C1=S`?
Answer: TGI [1]: > 100 µM; TGI [2]: 60.2 µM; TGI [3]: > 100 µM; TGI [4]: > 100 µM; TGI [5]: > 100 µM; TGI [6]: > 100 µM; TGI [7]: > 100 µM; TGI [8]: > 100 µM; TGI [9]: > 100 µM; TGI [10]: > 100 µM

Question: With `CC1CN=C(c2ccc(-c3nc(-c4ccc(C5=NCC(C)N5)cc4)nc(N(C)C)n3)cc2)N1` (centres undefined) as the molecule, how does the TGI [1] read?
Answer: 12.8 µM

Question: And the TGI [2]?
Answer: 19.9 µM

Question: What about the TGI [3] of the same molecule?
Answer: 4.74 µM

Question: And the TGI [4]?
Answer: 3.79 µM

Question: And the TGI [5]?
Answer: 4.42 µM

Question: What about the TGI [6] of the same molecule?
Answer: 8.68 µM

Question: What about the TGI [7] of the same molecule?
Answer: 2.35 µM

Question: And the TGI [8]?
Answer: 8.12 µM

Question: What about the TGI [9] of the same molecule?
Answer: 3.67 µM

Question: What about the TGI [10] of the same molecule?
Answer: 33.9 µM

Question: How did the TGI [1] turn out when `Cc1ccc(/C=N\NC(=O)c2ccncc2)s1` was run?
Answer: > 100 µM

Question: And the TGI [2]?
Answer: > 100 µM

Question: What about the TGI [3] of the same molecule?
Answer: > 100 µM

Question: What about the TGI [4] of the same molecule?
Answer: > 100 µM

Question: And the TGI [5]?
Answer: > 100 µM

Question: And the TGI [6]?
Answer: > 100 µM

Question: What about the TGI [7] of the same molecule?
Answer: > 100 µM

Question: And the TGI [8]?
Answer: > 100 µM

Question: And the TGI [9]?
Answer: > 100 µM

Question: And the TGI [10]?
Answer: > 100 µM

Question: For `COC(=O)/C=c1/c2ccccc2n2c1c1ccccc1[n+]2C`, which TGI [1] is on record?
Answer: 24.1 µM

Question: And the TGI [2]?
Answer: 20.4 µM

Question: And the TGI [3]?
Answer: 21.9 µM

Question: What about the TGI [4] of the same molecule?
Answer: > 100 µM

Question: And the TGI [5]?
Answer: 9.79 µM

Question: And the TGI [6]?
Answer: 15.5 µM

Question: What about the TGI [7] of the same molecule?
Answer: 19.4 µM

Question: What about the TGI [8] of the same molecule?
Answer: 19.9 µM

Question: And the TGI [9]?
Answer: 15.9 µM

Question: What about the TGI [10] of the same molecule?
Answer: 33.1 µM

Question: Which results are given for `CC(=Nc1cc(Cl)cc(Cl)c1)c1ccncc1`?
Answer: TGI [1]: > 100 µM; TGI [2]: > 100 µM; TGI [3]: > 100 µM; TGI [4]: > 100 µM; TGI [5]: > 100 µM; TGI [6]: > 100 µM; TGI [7]: > 100 µM; TGI [8]: > 100 µM; TGI [9]: > 100 µM; TGI [10]: > 100 µM

Question: Which results are given for `Clc1nc2c(C#Cc3ccccc3)ncnc2n1C1CCCCO1` (centres undefined)?
Answer: TGI [1]: 37.3 µM; TGI [2]: 25.1 µM; TGI [3]: 30.4 µM; TGI [4]: 51.2 µM; TGI [5]: 43.2 µM; TGI [6]: 25.9 µM; TGI [7]: 26.2 µM; TGI [8]: 91.3 µM; TGI [9]: 35.9 µM; TGI [10]: 31 µM

Question: Which results are given for `Cc1cn(CCOCCOC(=O)NC(CCCNC(N)=O)C(=O)O)c(=O)[nH]c1=O` (centres undefined)?
Answer: TGI [1]: > 100 µM; TGI [2]: > 100 µM; TGI [3]: > 100 µM; TGI [4]: > 100 µM; TGI [5]: > 100 µM; TGI [6]: > 100 µM; TGI [7]: > 100 µM; TGI [8]: > 100 µM; TGI [9]: > 100 µM; TGI [10]: > 100 µM

Question: What does the source list for `CCn1c(=O)c2c3ccc(OC(C)=O)cc3[nH]c2c2ccc(OC(C)=O)cc21`?
Answer: TGI [1]: > 100 µM; TGI [2]: > 100 µM; TGI [3]: > 100 µM; TGI [4]: 74.5 µM; TGI [5]: > 100 µM; TGI [6]: > 100 µM; TGI [7]: > 100 µM; TGI [8]: > 100 µM; TGI [9]: > 100 µM; TGI [10]: > 100 µM
